{"source": "PubChem BioAssay AID1745844", "about": "(Carcinogenic Potency Database (CPDB), 2022)", "tested_on": "rodent lifetime carcinogenesis bioassay, tumor incidence TD50", "test": "chronic cancer bioassays in animals – CPDB, compiled studies (AID 1745844)", "conditions": "in feed", "note": "The source made the active and inactive calls. No rule for the calls is given here."}
{"compound": "N[C@@H](Cc1c[nH]c2ccccc12)C(=O)O", "values": [{"measurement": "carcinogen call", "setting": "mouse, strain B6C3F1, females, site: any site (literature study), lesion: several types, types named in the paper, dosed 78 weeks, study length 104 weeks", "value": "negative (inactive)"}, {"measurement": "TD50", "setting": "mouse, strain B6C3F1, females, site: liver, lesion: hepatocellular adenoma + hepatocellular carcinoma + neoplastic nodule, dosed 78 weeks, study length 104 weeks", "value": 30200, "unit": "mg/kg/day"}, {"measurement": "TD50", "setting": "mouse, strain B6C3F1, males, site: any site (literature study), lesion: several types, types named in the paper, dosed 78 weeks, study length 104 weeks", "value": "1470 mg/kg/day (inactive)"}, {"measurement": "carcinogen call", "setting": "rat, strain Fischer 344, females, site: any site (literature study), lesion: several types, types named in the paper, dosed 78 weeks, study length 104 weeks", "value": "negative (inactive)"}, {"measurement": "carcinogen call", "setting": "rat, strain Fischer 344, males, site: any site (literature study), lesion: several types, types named in the paper, dosed 78 weeks, study length 104 weeks", "value": "negative (inactive)"}, {"measurement": "carcinogen call", "setting": "rat, strain Fischer, males, site: urinary bladder, lesion: several types, types named in the paper, dosed 100 weeks, study length 104 weeks", "value": "negative (inactive)"}]}
{"compound": "CN(C)c1ccc(N=NS(=O)(=O)O)cc1", "values": [{"measurement": "TD50", "setting": "mouse, strain B6C3F1, females, site: any site (literature study), lesion: several types, types named in the paper, dosed 78 weeks, study length 95 weeks", "value": 259, "unit": "mg/kg/day"}, {"measurement": "TD50", "setting": "mouse, strain B6C3F1, females, site: liver, lesion: hepatocellular adenoma + hepatocellular carcinoma + neoplastic nodule, dosed 78 weeks, study length 95 weeks", "value": 152, "unit": "mg/kg/day"}, {"measurement": "TD50", "setting": "mouse, strain B6C3F1, females, site: liver, lesion: hepatocellular adenoma + hepatocellular carcinoma, dosed 78 weeks, study length 95 weeks", "value": "152 mg/kg/day (inactive)"}, {"measurement": "TD50", "setting": "mouse, strain B6C3F1, females, site: lung, lesion: alveolar/bronchiolar adenoma + alveolar/bronchiolar carcinoma, dosed 78 weeks, study length 95 weeks", "value": 1750, "unit": "mg/kg/day"}, {"measurement": "carcinogen call", "setting": "mouse, strain B6C3F1, males, site: any site (literature study), lesion: several types, types named in the paper, dosed 78 weeks, study length 94 weeks", "value": "negative (inactive)"}, {"measurement": "carcinogen call", "setting": "rat, strain Fischer 344, females, site: any site (literature study), lesion: several types, types named in the paper, dosed 78 weeks, study length 105 weeks", "value": "negative (inactive)"}, {"measurement": "carcinogen call", "setting": "rat, strain Fischer 344, males, site: any site (literature study), lesion: several types, types named in the paper, dosed 78 weeks, study length 105 weeks", "value": "negative (inactive)"}]}
{"compound": "Nc1ccc(N)cc1", "values": [{"measurement": "TD50", "setting": "mouse, strain B6C3F1, females, site: any site (literature study), lesion: several types, types named in the paper, dosed 103 weeks, study length 104 weeks", "value": "1500 mg/kg/day (inactive)"}, {"measurement": "TD50", "setting": "mouse, strain B6C3F1, females, site: liver, lesion: hepatocellular adenoma + hepatocellular carcinoma + neoplastic nodule, dosed 103 weeks, study length 104 weeks", "value": 1370, "unit": "mg/kg/day"}, {"measurement": "TD50", "setting": "mouse, strain B6C3F1, females, site: lung, lesion: alveolar/bronchiolar adenoma + alveolar/bronchiolar carcinoma, dosed 103 weeks, study length 104 weeks", "value": 1390, "unit": "mg/kg/day"}, {"measurement": "carcinogen call", "setting": "mouse, strain B6C3F1, males, site: any site (literature study), lesion: several types, types named in the paper, dosed 103 weeks, study length 104 weeks", "value": "negative (inactive)"}, {"measurement": "TD50", "setting": "rat, strain Fischer 344, females, site: adrenal gland, lesion: pheochromocytoma, dosed 80 weeks, study length 80 weeks", "value": "4280 mg/kg/day (inactive)"}, {"measurement": "TD50", "setting": "rat, strain Fischer 344, females, site: any site (literature study), lesion: several types, types named in the paper, dosed 103 weeks, study length 116 weeks", "value": "247 mg/kg/day (inactive)"}, {"measurement": "carcinogen call", "setting": "rat, strain Fischer 344, males, site: adrenal gland, lesion: pheochromocytoma, dosed 80 weeks, study length 80 weeks", "value": "negative (inactive)"}, {"measurement": "carcinogen call", "setting": "rat, strain Fischer 344, males, site: any site (literature study), lesion: several types, types named in the paper, dosed 103 weeks, study length 116 weeks", "value": "negative (inactive)"}, {"measurement": "TD50", "setting": "rat, strain Fischer 344, males, site: liver, lesion: hepatocellular adenoma + hepatocellular carcinoma + neoplastic nodule, dosed 103 weeks, study length 116 weeks", "value": 2230, "unit": "mg/kg/day"}]}
{"compound": "Cc1cccc(OCC(O)CNC(C)(C)C)c1C", "note": "(centres undefined)", "values": [{"measurement": "carcinogen call", "setting": "mouse, strain B6C3F1, females, site: any site (literature study), lesion: several types, types named in the paper, dosed 82 weeks, study length 92 weeks", "value": "negative (inactive)"}, {"measurement": "carcinogen call", "setting": "mouse, strain B6C3F1, females, site: liver, lesion: several types, types named in the paper, dosed 82 weeks, study length 92 weeks", "value": "negative (inactive)"}, {"measurement": "carcinogen call", "setting": "mouse, strain B6C3F1, females, site: lung, lesion: several types, types named in the paper, dosed 82 weeks, study length 92 weeks", "value": "negative (inactive)"}, {"measurement": "TD50", "setting": "mouse, strain B6C3F1, males, site: any site (literature study), lesion: several types, types named in the paper, dosed 82 weeks, study length 92 weeks", "value": "618 mg/kg/day (inactive)"}, {"measurement": "carcinogen call", "setting": "mouse, strain B6C3F1, males, site: liver, lesion: several types, types named in the paper, dosed 82 weeks, study length 92 weeks", "value": "negative (inactive)"}, {"measurement": "TD50", "setting": "mouse, strain B6C3F1, males, site: lung, lesion: several types, types named in the paper, dosed 82 weeks, study length 92 weeks", "value": "1730 mg/kg/day (inactive)"}]}
{"compound": "CCOc1ccc(NC(=O)CC(C)O)cc1", "note": "(centres undefined)", "values": [{"measurement": "TD50", "setting": "mouse, strain B6C3F1, females, site: liver, lesion: hepatocellular adenoma, dosed 72 weeks, study length 84 weeks", "value": 4000, "unit": "mg/kg/day"}, {"measurement": "TD50", "setting": "mouse, strain B6C3F1, females, site: lung, lesion: alveolar-cell tumor, dosed 72 weeks, study length 84 weeks", "value": 11300, "unit": "mg/kg/day"}, {"measurement": "TD50", "setting": "mouse, strain B6C3F1, males, site: all sites, lesion: lymphoma and leukemia, combined, dosed 70 weeks, study length 84 weeks", "value": 2740, "unit": "mg/kg/day"}, {"measurement": "TD50", "setting": "mouse, strain B6C3F1, males, site: kidney, lesion: renal-cell adenoma, dosed 70 weeks, study length 84 weeks", "value": 5580, "unit": "mg/kg/day"}, {"measurement": "TD50", "setting": "mouse, strain B6C3F1, males, site: kidney, lesion: renal-cell carcinoma, dosed 70 weeks, study length 84 weeks", "value": 5530, "unit": "mg/kg/day"}, {"measurement": "TD50", "setting": "mouse, strain B6C3F1, males, site: liver, lesion: hemangioma, dosed 70 weeks, study length 84 weeks", "value": 406000, "unit": "mg/kg/day"}, {"measurement": "TD50", "setting": "mouse, strain B6C3F1, males, site: liver, lesion: hepatocellular adenoma, dosed 70 weeks, study length 84 weeks", "value": 17500, "unit": "mg/kg/day"}, {"measurement": "TD50", "setting": "mouse, strain B6C3F1, males, site: lung, lesion: alveolar-cell tumor, dosed 70 weeks, study length 84 weeks", "value": 5280, "unit": "mg/kg/day"}, {"measurement": "TD50", "setting": "mouse, strain B6C3F1, males, site: urinary bladder, lesion: papilloma, dosed 70 weeks, study length 84 weeks", "value": 46400, "unit": "mg/kg/day"}]}
{"compound": "C[C@]12CC[C@H]3C(=CCc4cc(OS(=O)(=O)O)ccc43)[C@@H]1CCC2=O", "values": [{"measurement": "carcinogen call", "setting": "rat, strain Charles River CD (Sprague-Dawley), females, site: liver, lesion: one or several types, types not named, dosed 104 weeks, study length 104 weeks", "value": "negative (inactive)"}, {"measurement": "carcinogen call", "setting": "rat, strain Charles River CD (Sprague-Dawley), males, site: liver, lesion: hepatoma, dosed 104 weeks, study length 104 weeks", "value": "negative (inactive)"}]}
